Where a SMILES comes first, the peptide text is derived from it. [ ]: non-standard residue; d: D form. NMeI = CC[C@H](C)[C@H](NC)C(=O)O; dNMeF = CN[C@H](Cc1ccccc1)C(=O)O; NMeL = CN[C@@H](CC(C)C)C(=O)O; dNMeL = CN[C@H](CC(C)C)C(=O)O; NMeA = CN[C@@H](C)C(=O)O; dNMeA = CN[C@H](C)C(=O)O; Aib = CC(C)(N)C(=O)O
What was measured:
Caco-2 cells = assay: Caco-2 permeability assay (apical to basolateral); format: in vitro ADME, human; details: Caco-2
Experimental: (§1) Human colon adenocarcinoma-derived Caco-2 cell line was used as a model system to investigate the intestinal epithelial permeability of our designs. Caco-2 cells were propagated in T125 flasks (Corning, Merck) using Dulbecco’s modified Eagle medium supplemented with 10% (v/v) fetal bovine serum, 1% (v/v) nonessential amino acids, and 1% (v/v) penicillin-streptomycin (Gibco, Thermo Fisher Scientific) at 37°C in an atmosphere of 5% CO2. Cells were subcultured when they reached 80% confluence.
(§2) The permeability of designed peptides was evaluated using an accelerated 6-day Caco-2 permeability assay as described previously ([Sevin et al., 2013]). In brief, cells were seeded into the 12-well Transwell plates with 0.4 μm polyester membrane inserts (Corning, Merck) to give 4.0 × 10^5 cells/well. The complete assay medium contained Dulbecco’s modified Eagle medium supplemented with 10% (v/v) fetal bovine serum, 1% (v/v) nonessential amino acids, and 0.4 μg/mL puromycin. The medium in plates was renewed every second day. The inserts received 0.75 mL of assay medium in the upper compartment (apical chamber) and 1.5 mL in the bottom compartment (basolateral chamber) individually. After 6-day incubation or until the cells formed monolayers, the medium in the apical and basolateral chamber was replaced with peptide solutions at 50 μM or Hanks' Balanced Salt Solution (HBSS), separately. The plates were incubated for 90 min at 37°C on an orbital shaker (60 rpm). The peptide concentration of solutions in the apical and basolateral compartments was subsequently quantified using LC-MS (Qstar Elite, AB Sciex Australia) to evaluate the transmembrane flux of peptides in the apical-to-basolateral direction. Membrane integrity of the Caco-2 cell monolayer was validated using trans-epithelial electrical resistance (TEER) measurements before and after the assays. Atenolol and quinidine were included as negative and positive controls in all assays.

[1] = Caco-2 permeability assay (apical to basolateral); format: in vitro ADME, human; details: for Papp A→B: Caco-2, Caco_Papp_Average; for Papp at 90 min, 50 µM: human, Caco-2
Experimental: as §1, §2

in vitro = details: PAMPA, PAMPA_Papp_Avg
[2] = PAMPA

| Compound | Caco_R1 (Caco-2 cells) | Caco_R3 (Caco-2 cells) | Papp A→B [1] | Papp (in vitro) | PAMPA_R1 [2] | PAMPA_R3 [2] | Papp at 90 min, 50 µM [1] |
| --- | --- | --- | --- | --- | --- | --- | --- |
| CC(C)C[C@@H]1NC(=O)[C@H](CC(C)C)N(C)C(=O)[C@H]2CCCN2C(=O)[C@@H](C)NC(=O)[C@@H](C)N(C)C(=O)[C@@H](C(C)C)NC(=O)[C@@H](CC(C)C)N(C)C(=O)[C@@H]2CCCN2C1=O [Design D8.30, DALA DPRO *LEU LEU PRO *DLEU DVAL *DALA] (cyclo(LP[dNMeL][dV][dNMeA][dA][dP][NMeL])) | 4.11 | 2.89 | 3.97 ×10⁻⁶ cm/s | 4.32 ×10⁻⁶ cm/s | 4.61E-06 | 4.25E-06 |  |
| CC[C@@H](C)[C@H]1NC(=O)[C@@H](CC(C)C)NC(=O)[C@H](C(C)C)NC(=O)[C@@H](CC(C)C)N(C)C(=O)[C@@H]2CCCN2C(=O)[C@H](C)NC(=O)[C@H](CC(C)C)N(C)C(=O)[C@H]2CCCN2C(=O)[C@H](C)N(C)C(=O)[C@@H](CC(C)C)N(C)C(=O)[C@@H]2CCCN2C1=O [Design D11.5, ALA PRO *DLEU VAL DLEU DILE PRO *DLEU *ALA DPRO *LEU] (cyclo(AP[dNMeL]V[dL][dI]P[dNMeL][NMeA][dP][NMeL])) | 2.93 | 3.89 | 3.84 ×10⁻⁶ cm/s | 2.81 ×10⁻⁶ cm/s | 2.56E-06 | 3.12E-06 |  |
| CC[C@H](C)[C@@H]1NC(=O)[C@@H](CC(C)C)NC(=O)[C@H](CC(C)C)N(C)C(=O)[C@H](Cc2ccccc2)NC(=O)CN(C)C(=O)[C@@H]2CCCN2C(=O)[C@H](C(C)C)NC(=O)[C@H](Cc2ccccc2)N(C)C(=O)[C@H]2CCCN2C(=O)[C@H](CC(C)C)NC1=O (single isomer, unassigned) [Design D10.1.p1, DLEU ILE LEU DPRO *PHE VAL PRO *GLY PHE *LEU] | 8.51 | 8.51 | 8.65 ×10⁻⁶ cm/s | 3.92 ×10⁻⁶ cm/s | 4.75E-06 | 3.42E-06 |  |
| CC[C@H](C)[C@@H]1NC(=O)[C@H]2CCCN2C(=O)[C@@H]2CCCN2C(=O)[C@@H](C(C)C)NC(=O)[C@@H](C)N(C)C(=O)[C@H](C)N(C)C(=O)[C@@H](CC(C)C)N(C)C(=O)[C@@H](C(C)C)NC1=O [Design D8.26, DVAL *DLEU *ALA *DALA DVAL PRO DPRO ILE] (cyclo(I[dV][dNMeL][NMeA][dNMeA][dV]P[dP])) | 0.79 | 0.94 | 0.647 ×10⁻⁶ cm/s | 0.255 ×10⁻⁶ cm/s | 1.58E-07 | 2.69E-07 |  |
| CC[C@H](C)[C@@H]1NC(=O)[C@@H](C(C)C)NC(=O)[C@@H]2CCCN2C(=O)[C@@H](CC(C)C)N(C)C(=O)[C@@H](C(C)C)NC(=O)[C@H](CC(C)C)N(C)C(=O)[C@H]2CCCN2C(=O)[C@@H](C)NC(=O)[C@H](Cc2ccccc2)N(C)C(=O)[C@H]2CCCN2C1=O (single isomer, unassigned) [Design D10.3.p1, ILE DPRO *PHE DALA DPRO *LEU DVAL *DLEU PRO DVAL] | 1.3 | 6.15 | 3.15 ×10⁻⁶ cm/s | 2.52 ×10⁻⁶ cm/s | 3.04E-06 | 1.85E-06 |  |
| CC[C@@H](C)[C@H]1NC(=O)[C@@H](CC(C)C)N(C)C(=O)[C@@H]2CCCN2C(=O)[C@@H]([C@H](C)CC)NC(=O)[C@@H](CC(C)C)NC(=O)[C@@H](CC(C)C)N(C)C(=O)[C@@H]2CCCN2C(=O)[C@@H](C(C)C)NC1=O [Design D8.8, PRO *DLEU DLEU DILE PRO *DLEU DILE DVAL] (cyclo(P[dNMeL][dI][dV]P[dNMeL][dL][dI])) | 20.91 | 24.11 | 23 ×10⁻⁶ cm/s | 5.9 ×10⁻⁶ cm/s | 9.54E-06 | 3.47E-06 |  |
| CC(C)C[C@@H]1NC(=O)[C@H]2CCCN2C(=O)[C@@H]2CCCN2C(=O)[C@H](CC(C)C)NC(=O)[C@@H](CC(C)C)NC(=O)[C@@H](C)N(C)C(=O)[C@@H](C)N(C)C(=O)[C@@H](C(C)C)NC1=O [Design D8.6, LEU PRO DPRO LEU DVAL *DALA *DALA DLEU] (cyclo(LP[dP]L[dV][dNMeA][dNMeA][dL])) | 0.86 | 0.45 | 0.737 ×10⁻⁶ cm/s | 3.35 ×10⁻⁶ cm/s | 3.54E-06 | 3.44E-06 |  |
| CC[C@H](C)[C@H]1C(=O)N[C@H](C)C(=O)N[C@@H](CC(C)C)C(=O)N[C@@H](C(C)C)C(=O)N2CCC[C@@H]2C(=O)N(C)[C@@H](CC(C)C)C(=O)N[C@@H](C(C)C)C(=O)N2CCC[C@H]2C(=O)N(C)[C@H](CC(C)C)C(=O)N[C@@H](C(C)C)C(=O)N1C [Design D10.19, DALA LEU VAL DPRO *LEU VAL PRO *DLEU VAL *ILE] (cyclo(LV[dP][NMeL]VP[dNMeL]V[NMeI][dA])) | 15.38 | 17.24 | 17.1 ×10⁻⁶ cm/s | 6.36 ×10⁻⁶ cm/s | 7.24E-06 | 7.38E-06 | > 10 ×10⁻⁶ cm/s |
| CC[C@H](C)[C@@H]1NC(=O)[C@@H](CC(C)C)NC(=O)[C@@H](C)N(C)C(=O)[C@H](Cc2ccccc2)NC(=O)[C@@H](CC(C)C)NC(=O)[C@@H](C)N(C)C(=O)[C@@H]2CCCN2C(=O)[C@H](C(C)C)NC(=O)[C@H]2CCCN2C(=O)[C@@H]2CCCN2C1=O [Design D10.31, PHE *DALA DLEU ILE PRO DPRO VAL PRO *DALA DLEU] (cyclo(F[dNMeA][dL]IP[dP]VP[dNMeA][dL])) | 1.93 | 3.02 | 2.79 ×10⁻⁶ cm/s | 1.9 ×10⁻⁶ cm/s | 1.81E-06 | 2.20E-06 |  |
| CC[C@@H](C)[C@H]1NC(=O)[C@H]2CCCN2C(=O)[C@@H]2CCCN2C(=O)[C@@H]([C@H](C)CC)NC(=O)[C@@H](Cc2ccccc2)NC(=O)[C@@H](Cc2ccccc2)N(C)C(=O)[C@@H]2CCCN2C(=O)[C@@H](C(C)C)NC1=O [Design D8.33, DPHE DILE PRO DPRO DILE DVAL PRO *DPHE] (cyclo(P[dNMeF][dF][dI]P[dP][dI][dV])) | 18.4 | 16.82 | 19.1 ×10⁻⁶ cm/s | 6.72 ×10⁻⁶ cm/s | 5.91E-06 | 1.01E-05 | > 10 ×10⁻⁶ cm/s |
| CC(C)C[C@@H]1C(=O)N[C@H](CC(C)C)C(=O)N2CCC[C@@H]2C(=O)N2CCC[C@@H]2C(=O)N(C)[C@@H](C)C(=O)N[C@H](Cc2ccccc2)C(=O)N[C@@H](C)C(=O)N(C)[C@@H](CC(C)C)C(=O)N1C [Design D8.10, DPRO DPRO *ALA DPHE ALA *LEU *DLEU DLEU] (cyclo(A[NMeL][dNMeL][dL][dP][dP][NMeA][dF])) | 3.8 | 3.36 | 3.91 ×10⁻⁶ cm/s | 1.23 ×10⁻⁶ cm/s | 8.77E-07 | 1.78E-06 |  |
| CC[C@@H](C)[C@H]1NC(=O)[C@@H](CC(C)C)NC(=O)C(C)(C)NC(=O)[C@@H]2CCCN2C(=O)[C@@H]([C@H](C)CC)NC(=O)[C@@H](CC(C)C)NC(=O)C(C)(C)NC(=O)[C@@H]2CCCN2C1=O [Design D8.2, PRO AIB DLEU DILE PRO AIB DLEU DILE] (cyclo([Aib][dL][dI]P[Aib][dL][dI]P)) | 8.98 | 13.19 | 11.7 ×10⁻⁶ cm/s | 7.49 ×10⁻⁶ cm/s | 7.36E-06 | 1.04E-05 |  |

Reference: article PMC9490236, “Accurate de novo design of membrane-traversing macrocycles” (Cell, 2022)
